# Experimental data reported in PMC11337205, “Unraveling Interspecies Differences in the Phase I Hepatic Metabolism of Alternariol and Alternariol Monomethyl Ether: Closing Data Gaps for a Comprehensive Risk Assessment” (Chemical Research in Toxicology, 2024).
# Columns and labels:
# [1] = oral exposure, radiolabeled AOH, male NMRI mice; cited from earlier work
# [2] = Pattern of oxidative metabolites in rat LMs by HR-MS; assay type: in vitro ADME, Sprague–Dawley rat; conditions: rat LMs incubated with AME
# Experimental: The kinetics of the phase I metabolism of AOH and AME was investigated by incubating human, rat (both 1 mg protein/mL), and porcine LMs (2 mg protein/mL) with 1, 10, 20, 50, and 100 μM AOH or 1, 10, 20, and 50 μM AME based on the protocol by Al-Subeihi et al.[34] The incubation solution contained a final concentration of 3 mM NADPH and 1 mM ascorbic acid in 200 mM Tris–HCl (pH 7.4). After preincubation (37 °C, 1 min, mixing at 250–300 rpm), the toxin stock was added in a 1:100 dilution, resulting in a total DMSO content of 1% and the desired toxin concentration. DMSO was selected for this assay because it is the least inhibitory of the solvents studied by Busby et al. on CYP1A1,[35] the primary enzyme involved in the hydroxylation of AOH and AME.[26] The well-established solubility of the test compounds in DMSO and DMSO-containing aqueous buffers facilitated laboratory work and ensured consistency with existing literature, thereby improving the comparability of results across studies, including those of Pfeiffer and colleagues.[25] […]
# Pooled high-resolution MS (HR-MS) samples were analyzed on a Vanquish UHPLC system (Thermo Fisher Scientific, Waltham, MA, USA) connected to a dual-pressure linear trap-quadrupole Orbitrap mass analyzer (Velos ETD, Thermo Fisher Scientific, Waltham, MA, USA). […]
# [3] = Pattern of oxidative metabolites in porcine LMs by HR-MS; assay type: in vitro ADME, pig; conditions: porcine LMs incubated with AME
# Experimental: (§1) The kinetics of the phase I metabolism of AOH and AME was investigated by incubating human, rat (both 1 mg protein/mL), and porcine LMs (2 mg protein/mL) with 1, 10, 20, 50, and 100 μM AOH or 1, 10, 20, and 50 μM AME based on the protocol by Al-Subeihi et al.[34] The incubation solution contained a final concentration of 3 mM NADPH and 1 mM ascorbic acid in 200 mM Tris–HCl (pH 7.4). After preincubation (37 °C, 1 min, mixing at 250–300 rpm), the toxin stock was added in a 1:100 dilution, resulting in a total DMSO content of 1% and the desired toxin concentration. DMSO was selected for this assay because it is the least inhibitory of the solvents studied by Busby et al. on CYP1A1,[35] the primary enzyme involved in the hydroxylation of AOH and AME.[26] The well-established solubility of the test compounds in DMSO and DMSO-containing aqueous buffers facilitated laboratory work and ensured consistency with existing literature, thereby improving the comparability of results across studies, including those of Pfeiffer and colleagues.[25] In a preliminary investigation, incubation times of 5 and 10 min were chosen because they fall within the linear range of the transformation rate–time relationship, thereby ensuring initial rate conditions (Figure S1). When the selected incubation time (0–10 min) passed, one part of the sample was pipetted into two parts of ice-cold extraction solvent (acetonitrile–methanol, 1:1, v/v) for reaction termination. Subsequently, the samples were placed into the freezer (−20 °C) for at least an hour, centrifuged (15 min, 18,000g, 4 °C), and further diluted in methanol–water (3:7, v/v) prior to LC–MS measurements. In the solvent control, the toxin was substituted with DMSO in the incubation solution. Control incubations were performed without the cofactor NADPH or with heat-inactivated microsomes (98 °C, 10 min, mixing at 300 rpm).
# Pooled high-resolution MS (HR-MS) samples were analyzed on a Vanquish UHPLC system (Thermo Fisher Scientific, Waltham, MA, USA) connected to a dual-pressure linear trap-quadrupole Orbitrap mass analyzer (Velos ETD, Thermo Fisher Scientific, Waltham, MA, USA). The heated ESI interface (source heater temperature: 400 °C) was operated in both positive and negative modes. The mobile and stationary phases were the same as those for the targeted analysis. The column compartment temperature was kept at 40 °C. A multistep gradient was applied at a flow rate of 0.4 mL/min and started with rinsing the column for 1 min at 10% eluent B. Then, the organic content was linearly raised to 100% until the 11th minute. Subsequently, the column was purged with 100% eluent B for two additional minutes. Finally, the initial eluent composition was reset between minutes 13 and 13.5, followed by a 2 min re-equilibration under these conditions, resulting in a total run time of 15.5 min. Data acquisition and evaluation were performed with the software Skyline (v. 21.1.0.146, MacCoss Lab, Department of Genome Sciences, University of Washington, Seattle, WA, USA), XCalibur (v. 2.2SP1.48), and Chromeleon (v. 7.2.6.; both Thermo Fisher Scientific, Waltham, MA, USA).
# As no analytical standards are currently available for the hydroxy (OH) metabolites of AOH and AME, an Alternaria reference mixture containing 4-OH-AOH and 4-OH-AME was used to enable associating peaks with their respective phase I metabolites.
# [4] = Pattern of oxidative metabolites in human LMs by HR-MS; assay type: in vitro ADME; conditions: human LMs incubated with AME
# Experimental: as §1
# Pooled high-resolution MS (HR-MS) samples were analyzed on a Vanquish UHPLC system (Thermo Fisher Scientific, Waltham, MA, USA) connected to a dual-pressure linear trap-quadrupole Orbitrap mass analyzer (Velos ETD, Thermo Fisher Scientific, Waltham, MA, USA). The heated ESI interface (source heater temperature: 400 °C) was operated in both positive and negative modes. The mobile and stationary phases were the same as those for the targeted analysis. The column compartment temperature was kept at 40 °C. A multistep gradient was applied at a flow rate of 0.4 mL/min and started with rinsing the column for 1 min at 10% eluent B. Then, the organic content was linearly raised to 100% until the 11th minute. Subsequently, the column was purged with 100% eluent B for two additional minutes. […]
structure (smiles),measurement,setting,value
"Cc1cc(O)cc2oc(=O)c3c(O)cc(O)cc3c12 [AOH, alternariol]",bioavailability,[1],less than 10%
same,relative abundance among phase I metabolites (in words),[2],one of the main metabolites
same,relative abundance among phase I metabolites (in words),[3],one of the main metabolites
same,relative abundance among phase I metabolites (in words),[4],small amounts
